In ChEMBL document CHEMBL5723584 (2023):

Assays:
[1] = target: Cyclin-dependent kinase-like 2 (Homo sapiens) (UniProt Q92772); assay: activity of CDKL2(h) at 1.0 µM in the Eurofins Kinase panel; conditions: Compound concentration 1.0 uM
[2] = target: Insulin-like growth factor 1 receptor (Homo sapiens) (UniProt P08069); assay: activity of IGF-1R(h) at 1.0 µM in the Eurofins Kinase panel; conditions: Compound concentration 1.0 uM
[3] = target: Protein kinase C zeta type (Homo sapiens) (UniProt Q05513); assay: activity of PKCzeta(h) at 1.0 µM in the Eurofins Kinase panel; conditions: Compound concentration 1.0 uM
[4] = target: Serine/threonine-protein kinase ICK (Homo sapiens) (UniProt Q9UPZ9); assay: activity of ICK(h) at 1.0 µM in the Eurofins Kinase panel; conditions: Compound concentration 1.0 uM
Chain of Serine/threonine-protein kinase ICK (Homo sapiens) (Q9UPZ9 whole entry): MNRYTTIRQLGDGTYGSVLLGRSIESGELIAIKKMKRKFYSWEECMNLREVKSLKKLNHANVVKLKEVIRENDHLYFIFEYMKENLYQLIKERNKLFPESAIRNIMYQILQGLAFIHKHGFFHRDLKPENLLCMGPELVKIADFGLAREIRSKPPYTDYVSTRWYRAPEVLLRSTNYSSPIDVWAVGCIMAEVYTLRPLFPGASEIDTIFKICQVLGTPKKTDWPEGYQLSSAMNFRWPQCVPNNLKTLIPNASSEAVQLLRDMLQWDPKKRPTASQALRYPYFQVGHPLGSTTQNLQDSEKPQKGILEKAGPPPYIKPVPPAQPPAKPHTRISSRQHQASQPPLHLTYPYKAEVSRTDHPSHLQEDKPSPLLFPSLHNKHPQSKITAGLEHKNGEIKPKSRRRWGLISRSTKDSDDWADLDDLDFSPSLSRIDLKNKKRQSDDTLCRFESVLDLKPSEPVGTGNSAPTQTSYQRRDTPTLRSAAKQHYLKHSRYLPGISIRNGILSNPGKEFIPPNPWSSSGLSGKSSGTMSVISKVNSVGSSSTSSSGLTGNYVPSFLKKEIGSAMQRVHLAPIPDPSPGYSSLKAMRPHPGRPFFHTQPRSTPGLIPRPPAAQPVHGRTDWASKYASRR

[5] = target: Serine/threonine-protein kinase VRK2 (Homo sapiens) (UniProt Q86Y07); assay: activity of VRK2(h) at 1.0 µM in the Eurofins Kinase panel; conditions: Compound concentration 1.0 uM
Chain of Serine/threonine-protein kinase VRK2 (Homo sapiens) (Q86Y07 whole entry, canonical isoform): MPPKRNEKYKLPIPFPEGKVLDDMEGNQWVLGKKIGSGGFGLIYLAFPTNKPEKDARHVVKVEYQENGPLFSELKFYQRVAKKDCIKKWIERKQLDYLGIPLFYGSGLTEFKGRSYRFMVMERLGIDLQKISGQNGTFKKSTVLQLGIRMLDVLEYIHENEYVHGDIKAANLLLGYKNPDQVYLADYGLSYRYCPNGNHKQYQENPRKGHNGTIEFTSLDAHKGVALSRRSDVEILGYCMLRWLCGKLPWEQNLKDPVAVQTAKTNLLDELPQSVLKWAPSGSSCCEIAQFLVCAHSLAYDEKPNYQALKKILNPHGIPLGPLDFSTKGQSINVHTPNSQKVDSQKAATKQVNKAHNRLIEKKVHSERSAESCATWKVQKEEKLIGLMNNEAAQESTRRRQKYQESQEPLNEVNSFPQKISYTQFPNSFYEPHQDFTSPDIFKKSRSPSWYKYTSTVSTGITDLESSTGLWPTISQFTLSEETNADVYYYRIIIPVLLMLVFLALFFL

[6] = target: Casein kinase I isoform gamma-3 (Homo sapiens) (UniProt Q9Y6M4); assay: activity of CK1gamma3(h) at 1.0 µM in the Eurofins Kinase panel; conditions: Compound concentration 1.0 uM
[7] = target: Tyrosine-protein kinase JAK1 (Homo sapiens) (UniProt P23458); assay: activity of JAK1(h) at 1.0 µM in the Eurofins Kinase panel; conditions: Compound concentration 1.0 uM
[8] = target: AP2-associated protein kinase 1 (Homo sapiens, UniProt Q2M2I8); assay: Promega NanoBRET (AAK1)
[9] = target: CDK4/Cyclin D3 (Homo sapiens) (UniProt P11802+P30281); assay: activity of CDK4/cyclinD3(h) at 1.0 µM in the Eurofins Kinase panel; type: protein-complex assay; conditions: Compound concentration 1.0 uM
[10] = target: Serine/threonine-protein kinase Nek6 (Homo sapiens) (UniProt Q9HC98); assay: activity of NEK6(h) at 1.0 µM in the Eurofins Kinase panel; conditions: Compound concentration 1.0 uM
[11] = target: Angiopoietin-1 receptor (Homo sapiens) (UniProt Q02763); assay: activity of Tie2(h) at 1.0 µM in the Eurofins Kinase panel; conditions: Compound concentration 1.0 uM
[12] = target: Protein kinase C theta type (Homo sapiens) (UniProt Q04759); assay: activity of PKCtheta(h) at 1.0 µM in the Eurofins Kinase panel; conditions: Compound concentration 1.0 uM
[13] = target: Discoidin domain-containing receptor 2 (Homo sapiens) (UniProt Q16832); assay: activity of DDR2(h) at 1.0 µM in the Eurofins Kinase panel; conditions: Compound concentration 1.0 uM
[14] = target: Protein-tyrosine kinase 6 (Homo sapiens) (UniProt Q13882); assay: activity of BRK(h) at 1.0 µM in the Eurofins Kinase panel; conditions: Compound concentration 1.0 uM
[15] = target: Epidermal growth factor receptor (Homo sapiens) (UniProt P00533); assay: activity of EGFR(h) at 1.0 µM in the Eurofins Kinase panel; conditions: Compound concentration 1.0 uM
[16] = target: Activin receptor type-1B (Homo sapiens) (UniProt P36896); assay: activity of ALK4(h) at 1.0 µM in the Eurofins Kinase panel; conditions: Compound concentration 1.0 uM
[17] = target: Proto-oncogene tyrosine-protein kinase receptor Ret (Homo sapiens) (UniProt P07949); assay: activity of Ret(h) at 1.0 µM in the Eurofins Kinase panel; conditions: Compound concentration 1.0 uM
[18] = target: Serine/threonine-protein kinase ULK1 (Homo sapiens) (UniProt O75385); assay: activity of ULK1(h) at 1.0 µM in the Eurofins Kinase panel; conditions: Compound concentration 1.0 uM
[19] = target: Serine/threonine-protein kinase SIK2 (Homo sapiens) (UniProt Q9H0K1); assay: activity of SIK2(h) at 1.0 µM in the Eurofins Kinase panel; conditions: Compound concentration 1.0 uM
Chain of Serine/threonine-protein kinase SIK2 (Homo sapiens) (Q9H0K1 whole entry, looked up): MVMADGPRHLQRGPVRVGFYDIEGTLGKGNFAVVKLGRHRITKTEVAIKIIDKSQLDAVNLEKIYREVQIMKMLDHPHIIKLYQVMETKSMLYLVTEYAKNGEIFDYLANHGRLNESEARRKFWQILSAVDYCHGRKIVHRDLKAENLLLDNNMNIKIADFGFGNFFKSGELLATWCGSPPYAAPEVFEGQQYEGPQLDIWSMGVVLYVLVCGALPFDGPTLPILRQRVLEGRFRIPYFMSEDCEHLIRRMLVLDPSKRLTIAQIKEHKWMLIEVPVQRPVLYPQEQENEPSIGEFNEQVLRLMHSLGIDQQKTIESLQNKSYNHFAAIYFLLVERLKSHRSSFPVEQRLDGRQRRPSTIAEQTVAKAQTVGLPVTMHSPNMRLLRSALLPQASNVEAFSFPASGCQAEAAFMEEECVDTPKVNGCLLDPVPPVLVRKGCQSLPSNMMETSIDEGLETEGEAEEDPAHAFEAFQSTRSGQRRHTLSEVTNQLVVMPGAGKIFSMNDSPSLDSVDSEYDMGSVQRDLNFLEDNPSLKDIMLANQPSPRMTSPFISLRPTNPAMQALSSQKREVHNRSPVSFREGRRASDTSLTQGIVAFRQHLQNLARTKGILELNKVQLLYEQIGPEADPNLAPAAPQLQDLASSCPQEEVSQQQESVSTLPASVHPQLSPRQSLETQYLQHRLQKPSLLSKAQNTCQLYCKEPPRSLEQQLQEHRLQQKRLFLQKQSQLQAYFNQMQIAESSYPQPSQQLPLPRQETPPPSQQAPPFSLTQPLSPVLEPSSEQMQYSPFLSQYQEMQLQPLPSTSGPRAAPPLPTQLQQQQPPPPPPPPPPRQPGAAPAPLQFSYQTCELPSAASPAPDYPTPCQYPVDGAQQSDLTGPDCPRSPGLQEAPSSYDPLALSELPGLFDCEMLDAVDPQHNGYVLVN

[20] = target: Tyrosine-protein kinase Fgr (Homo sapiens) (UniProt P09769); assay: activity of Fgr(h) at 1.0 µM in the Eurofins Kinase panel; conditions: Compound concentration 1.0 uM
[21] = target: Homeodomain-interacting protein kinase 2 (Homo sapiens) (UniProt Q9H2X6); assay: activity of HIPK2(h) at 1.0 µM in the Eurofins Kinase panel; conditions: Compound concentration 1.0 uM
[22] = target: Ephrin type-A receptor 7 (Homo sapiens) (UniProt Q15375); assay: activity of EphA7(h) at 1.0 µM in the Eurofins Kinase panel; conditions: Compound concentration 1.0 uM
[23] = target: Serine/threonine-protein kinase WNK4 (Homo sapiens) (UniProt Q96J92); assay: activity of WNK4(h) at 1.0 µM in the Eurofins Kinase panel; conditions: Compound concentration 1.0 uM
[24] = target: Epithelial discoidin domain-containing receptor 1 (Homo sapiens) (UniProt Q08345); assay: activity of DDR1(h) at 1.0 µM in the Eurofins Kinase panel; conditions: Compound concentration 1.0 uM
[25] = target: Serine/threonine-protein kinase PLK3 (Homo sapiens) (UniProt Q9H4B4); assay: activity of Plk3(h) at 1.0 µM in the Eurofins Kinase panel; conditions: Compound concentration 1.0 uM
[26] = target: Mitogen-activated protein kinase 11 (Homo sapiens) (UniProt Q15759); assay: activity of SAPK2b(h) at 1.0 µM in the Eurofins Kinase panel; conditions: Compound concentration 1.0 uM
[27] = target: Dual specificity protein kinase TTK (Homo sapiens) (UniProt P33981); assay: activity of TTK(h) at 1.0 µM in the Eurofins Kinase panel; conditions: Compound concentration 1.0 uM
Chain of Dual specificity protein kinase TTK (Homo sapiens) (P33981 whole entry): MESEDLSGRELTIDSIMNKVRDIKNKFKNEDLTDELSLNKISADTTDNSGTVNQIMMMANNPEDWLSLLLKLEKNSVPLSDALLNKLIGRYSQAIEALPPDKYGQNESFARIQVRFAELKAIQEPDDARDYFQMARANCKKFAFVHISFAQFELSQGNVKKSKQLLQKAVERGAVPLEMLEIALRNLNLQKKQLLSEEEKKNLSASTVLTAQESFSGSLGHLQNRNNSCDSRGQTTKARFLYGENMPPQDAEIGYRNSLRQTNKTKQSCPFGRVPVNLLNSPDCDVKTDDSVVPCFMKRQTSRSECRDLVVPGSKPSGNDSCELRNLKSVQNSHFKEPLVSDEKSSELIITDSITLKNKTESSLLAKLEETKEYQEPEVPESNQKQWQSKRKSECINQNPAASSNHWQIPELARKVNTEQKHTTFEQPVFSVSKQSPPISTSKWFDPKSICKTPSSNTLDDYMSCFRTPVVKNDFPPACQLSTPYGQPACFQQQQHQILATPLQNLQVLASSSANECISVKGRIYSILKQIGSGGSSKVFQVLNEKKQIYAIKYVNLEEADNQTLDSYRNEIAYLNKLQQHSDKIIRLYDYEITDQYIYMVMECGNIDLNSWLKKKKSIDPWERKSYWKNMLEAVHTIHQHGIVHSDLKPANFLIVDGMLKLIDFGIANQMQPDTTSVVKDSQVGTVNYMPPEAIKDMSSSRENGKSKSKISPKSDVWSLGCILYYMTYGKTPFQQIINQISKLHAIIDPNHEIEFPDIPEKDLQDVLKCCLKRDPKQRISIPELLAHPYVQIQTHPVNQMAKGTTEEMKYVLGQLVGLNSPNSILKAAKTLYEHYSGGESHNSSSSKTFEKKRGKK

[28] = target: CDK12/Cyclin K (Homo sapiens) (UniProt O75909+Q9NYV4); assay: activity of CDK12/cyclinK(h) at 1.0 µM in the Eurofins Kinase panel; type: protein-complex assay; conditions: Compound concentration 1.0 uM
[29] = target: Cytoplasmic tyrosine-protein kinase BMX (Homo sapiens) (UniProt P51813); assay: activity of Bmx(h) at 1.0 µM in the Eurofins Kinase panel; conditions: Compound concentration 1.0 uM
[30] = target: Serine/threonine-protein kinase 32C (Homo sapiens) (UniProt Q86UX6); assay: activity of STK32C(h) at 1.0 µM in the Eurofins Kinase panel; conditions: Compound concentration 1.0 uM
[31] = target: Eukaryotic elongation factor 2 kinase (Homo sapiens) (UniProt O00418); assay: activity of eEF-2K(h) at 1.0 µM in the Eurofins Kinase panel; conditions: Compound concentration 1.0 uM
[32] = target: MAP kinase-interacting serine/threonine-protein kinase 2 (Homo sapiens, UniProt Q9HBH9); assay: Promega NanoBRET (MKNK2)
Chain of MAP kinase-interacting serine/threonine-protein kinase 2 (Q9HBH9 whole entry): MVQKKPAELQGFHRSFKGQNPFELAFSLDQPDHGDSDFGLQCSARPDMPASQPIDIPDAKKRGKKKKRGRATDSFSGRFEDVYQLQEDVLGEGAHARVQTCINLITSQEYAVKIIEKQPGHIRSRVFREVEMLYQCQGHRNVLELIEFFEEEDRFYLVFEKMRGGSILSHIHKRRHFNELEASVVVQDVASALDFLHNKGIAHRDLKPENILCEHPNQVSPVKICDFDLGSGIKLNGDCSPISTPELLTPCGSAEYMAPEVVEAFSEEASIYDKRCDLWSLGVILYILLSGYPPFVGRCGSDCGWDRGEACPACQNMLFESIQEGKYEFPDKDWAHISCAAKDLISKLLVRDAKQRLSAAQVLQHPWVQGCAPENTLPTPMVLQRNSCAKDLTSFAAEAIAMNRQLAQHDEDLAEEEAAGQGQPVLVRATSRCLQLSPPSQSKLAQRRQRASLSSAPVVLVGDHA

[33] = target: Serine/threonine-protein kinase Nek7 (Homo sapiens) (UniProt Q8TDX7); assay: activity of NEK7(h) at 1.0 µM in the Eurofins Kinase panel; conditions: Compound concentration 1.0 uM
[34] = target: Casein kinase 2 (Homo sapiens) (UniProt P67870+P68400+P19784+Q8NEV1); assay: activity of CK2(h) at 1.0 µM in the Eurofins Kinase panel; type: protein assay; conditions: Compound concentration 1.0 uM
[35] = target: Serine/threonine-protein kinase PAK 6 (Homo sapiens) (UniProt Q9NQU5); assay: activity of PAK6(h) at 1.0 µM in the Eurofins Kinase panel; conditions: Compound concentration 1.0 uM
Chain of Serine/threonine-protein kinase PAK 6 (Homo sapiens) (Q9NQU5 whole entry, looked up): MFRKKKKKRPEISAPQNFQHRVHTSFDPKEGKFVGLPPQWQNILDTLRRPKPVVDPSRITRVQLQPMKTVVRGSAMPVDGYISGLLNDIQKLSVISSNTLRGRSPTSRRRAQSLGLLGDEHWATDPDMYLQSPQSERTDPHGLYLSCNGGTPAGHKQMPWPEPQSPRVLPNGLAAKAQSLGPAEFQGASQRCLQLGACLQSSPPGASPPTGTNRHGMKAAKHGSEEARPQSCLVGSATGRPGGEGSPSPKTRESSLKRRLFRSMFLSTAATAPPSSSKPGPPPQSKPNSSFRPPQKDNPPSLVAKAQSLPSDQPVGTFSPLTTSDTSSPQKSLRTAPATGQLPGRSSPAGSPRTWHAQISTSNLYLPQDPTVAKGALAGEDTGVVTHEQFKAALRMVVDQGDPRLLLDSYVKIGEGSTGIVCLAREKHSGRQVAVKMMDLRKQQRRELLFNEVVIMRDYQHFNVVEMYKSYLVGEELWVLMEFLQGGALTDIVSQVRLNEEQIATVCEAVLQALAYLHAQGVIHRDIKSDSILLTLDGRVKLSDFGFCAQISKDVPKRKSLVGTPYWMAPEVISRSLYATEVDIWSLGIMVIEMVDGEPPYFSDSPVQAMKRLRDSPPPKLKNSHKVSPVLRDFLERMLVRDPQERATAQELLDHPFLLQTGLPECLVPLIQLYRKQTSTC

Aurora kinase B = Aurora kinase B (Homo sapiens, UniProt Q96GD4); assay: Promega NanoBRET (AURKB)
[36] = target: Tyrosine-protein kinase BTK (Homo sapiens) (UniProt Q06187); assay: activity of BTK(h) at 1.0 µM in the Eurofins Kinase panel; conditions: Compound concentration 1.0 uM
[37] = target: Death-associated protein kinase 2 (Homo sapiens) (UniProt Q9UIK4); assay: activity of DAPK2(h) at 1.0 µM in the Eurofins Kinase panel; conditions: Compound concentration 1.0 uM
[38] = target: Serine/threonine-protein kinase Chk1 (Homo sapiens) (UniProt O14757); assay: activity of CHK1(h) at 1.0 µM in the Eurofins Kinase panel; conditions: Compound concentration 1.0 uM
[39] = target: Tyrosine-protein kinase Mer (Homo sapiens) (UniProt Q12866); assay: activity of Mer(h) at 1.0 µM in the Eurofins Kinase panel; conditions: Compound concentration 1.0 uM
Chain of Tyrosine-protein kinase Mer (Homo sapiens) (Q12866 whole entry): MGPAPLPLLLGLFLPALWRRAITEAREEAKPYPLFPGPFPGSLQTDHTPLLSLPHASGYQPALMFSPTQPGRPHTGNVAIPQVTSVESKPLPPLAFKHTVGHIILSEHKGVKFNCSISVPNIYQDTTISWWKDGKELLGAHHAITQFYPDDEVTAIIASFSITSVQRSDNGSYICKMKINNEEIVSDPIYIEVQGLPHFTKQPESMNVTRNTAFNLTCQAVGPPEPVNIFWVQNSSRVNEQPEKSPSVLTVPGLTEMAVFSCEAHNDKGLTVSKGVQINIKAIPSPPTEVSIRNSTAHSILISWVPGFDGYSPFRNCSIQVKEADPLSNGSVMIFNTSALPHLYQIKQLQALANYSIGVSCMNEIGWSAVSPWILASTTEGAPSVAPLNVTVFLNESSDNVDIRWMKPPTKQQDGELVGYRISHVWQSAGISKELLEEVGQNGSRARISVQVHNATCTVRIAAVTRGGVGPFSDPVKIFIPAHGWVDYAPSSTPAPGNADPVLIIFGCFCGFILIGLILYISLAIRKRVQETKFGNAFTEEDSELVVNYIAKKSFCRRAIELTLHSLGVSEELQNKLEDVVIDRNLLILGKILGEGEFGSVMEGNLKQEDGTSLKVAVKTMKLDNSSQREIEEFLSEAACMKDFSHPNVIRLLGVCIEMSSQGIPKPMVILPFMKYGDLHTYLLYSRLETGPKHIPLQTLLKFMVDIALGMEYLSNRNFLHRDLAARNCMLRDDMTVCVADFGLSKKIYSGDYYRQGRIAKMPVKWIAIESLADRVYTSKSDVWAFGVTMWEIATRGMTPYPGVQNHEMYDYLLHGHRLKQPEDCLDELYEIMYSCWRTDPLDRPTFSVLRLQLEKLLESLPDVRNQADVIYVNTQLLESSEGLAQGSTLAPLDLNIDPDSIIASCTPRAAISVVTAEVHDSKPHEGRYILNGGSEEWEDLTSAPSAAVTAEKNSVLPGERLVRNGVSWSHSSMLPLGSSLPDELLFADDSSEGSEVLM

Cc1cc2c(-c3ccc(NC(=O)[C@H](N)CC(C)(C)C)cc3C)ccnc2[nH]1
activity [1]: 80%
activity [2]: 98%
activity [3]: 88%
activity [4]: 99%
activity [5]: 100%
activity [6]: 84%
activity [7]: 85%
IC50 [8]: 6.2 µM (not active)
activity [9]: 74%
activity [10]: 86%
activity [11]: 99%
activity [12]: 103%
activity [13]: 85%
activity [14]: 83%
activity [15]: 107%
activity [16]: 94%
activity [17]: 97%
activity [18]: 95%
activity [19]: 109%
activity [20]: 97%
activity [21]: 105%
activity [22]: 114%
activity [23]: 97%
activity [24]: 98%
activity [25]: 100%
activity [26]: 90%
activity [27]: 102%
activity [28]: 89%
activity [29]: 97%
activity [30]: 85%
activity [31]: 92%
IC50 [32]: 5.5 µM (not active)
activity [33]: 88%
activity [34]: 112%
activity [35]: 101%
IC50 (Aurora kinase B): > 10 µM (not active)
activity [36]: 122%
activity [37]: 109%
activity [38]: 108%
activity [39]: 105%
